Test results reported in patent publication US20250145592A1 (NICO Therapeutics, Inc., priority 2022, published 2025).
Like-named read-outs stand apart in the source and are kept apart here.

Tested on: IL-1β secretion in THP-1 cells (NLRP3)
Test: IL-1β secretion assay in PMA-differentiated THP-1 cells stimulated with LPS and nigericin (ELISA readout)
Assay type: cell-based
Settings: IL-1β ELISA
Procedure: Compounds as provided herein were tested in the following assay. Cell culture medium employed contained RPMI 1640 medium (89%), FBS (10%), Pen/Strep (1%), and 2-mercaptoethanol (0.05 mM). Freezing medium was made up of 90% FBS and 10% DMSO. THP-1 cells were removed from the liquid nitrogen and placed into a 37° C. water bath to thaw, until signs of ice dissipated. The cells were then added to 9 mL of warm cell culture medium and centrifuged for 5 minutes at 1000 rpm. The supernatant was discarded, and the cells were resuspended in new cell culture medium. THP-1 cells were then split and cultured in the cell culture medium, being passaged every 2-3 days with the cell density will be maintained between 5×10^5 and 1.5×10^6 viable cells/mL.
To freeze, cells were resuspended with fresh freezing medium, adjusting the cell density to 5×10^6 cells/mL. The cell suspension was partitioned into 1 mL aliquots per vial, and the vials were transferred to a −80° C. freezer. After one day at −80° C., the cell vials were transferred to liquid nitrogen freezer for storage.
PMA was dissolved in DMSO to make a stock solution at 5 mg/ml and stored in 10 μl aliquots at −20° C. for single use. PMA is added to normal growth medium. LPS was diluted with 1 mL of water solution to provide a 1 mg/mL stock solution and stored in 15 μl aliquots at −20° C. for single use. Nigericin is diluted in ice cold 100% ethanol to 5 mg/ml (6.7 mM) and stored in 75 μL aliquots at −20° C. for single use. Serum-free media contains RPMI 1640 medium (99%), Pen/Strep (1%), and 2-mercaptoethanol (0.05 mM). The two control conditions used to qualify and normalize test compound dose-response curves were as follows: High Control=25 ng/mL LPS, […], 0.5% DMSO, Low Control=25 ng/mL, LPS, 0.5% DMSO.
THP-1 cells were diluted to provide a suspension at a concentration of 1.0×10^6 cells/mL with the total volume of suspension required to enable the desired number of assay plates. The growth media was supplemented with PMA (5 ng/mL final concentration) and the cells were incubated at 37° C. under a humidified atmosphere of 5% CO2 for 40 h.
All media was carefully aspirated from each culture flask. The cells were washed carefully with 1×DPBS. The cells were then briefly digested with trypsin LE for 5 minutes at 23° C. and immediately resuspended in cell growth media. After resuspension, the cells were centrifuged at 1000 rpm for 3 minutes and the supernatant was discarded. The cells were resuspended in DPBS and once again centrifuged at 1000 rpm for 5 minutes. The supernatant was discarded and the cell pellet was resuspended in serum-free media supplemented with LPS (25 ng/mL final concentration) to enable the distribution of 30K THP-1 cells within 45 μL of media into each well of 384-well PDL-coated plates. The 384-well plates were then incubated at 37° C. under a humidified atmosphere of 5% CO2 for 2 h. Following this period, test compounds were dispensed by Tecan across the desired concentration range with all wells normalized to a final 0.5% DMSO concentration. The plates were then then incubated at 37° C. under a humidified atmosphere of 5% CO2 for 1 h. Following this period, 5 μL of the 5 mg/mL nigericin stock solution was added to each of the appropriate wells and plates were centrifuged at 1000 rpm for 30 seconds. The plates were the immediately reintroduced to the incubator at 37° C. under a humidified atmosphere of 5% CO2 for 2 h. After this time, 35 μL/well of supernatant was collected and transferred into v-bottom plate and centrifuged at 1000 rpm for 1 minute. These supernatant aliquots were analyzed using an IL-Iβ detection kit as described below. If needed, the test samples could be snap frozen and stored at −80° C. until analyzed.
To prepare each ELISA plate, capture antibody (mAb Mt175) was diluted with PBS to a final concentration of […] and then 20 µL of this solution was added to each well of the ELISA plate.
Each plate was allowed to incubate overnight at 4° C. […]

[1] = Homo sapiens, THP-1, Table 3, LPS 25 ng/mL + nigericin, read-out: Activity (IC50 class)
[2] = Homo sapiens, THP-1, Table 4, LPS 25 ng/mL + nigericin, read-out: Activity (IC50)
[3] = Table 4, LPS 25 ng/mL + nigericin, read-out: Activity (IC50)

IC50 [1]	IC50 [2]	IC50 [3]	SMILES
< 1000 nM	444 nM		Cc1cnc(NC(=O)Cn2nc(OC3CC3)c3cc(Br)ccc3c2=O)nn1 [Example 38, 2-(6-bromo-4-cyclopropyloxy-1-oxophthalazin-2-yl)-N-(6-methyl-1,2,4-triazin-3-yl)acetamide]
< 1000 nM	790 nM		CC[C@H]1C[C@@H]1Oc1nn(CC(=O)Nc2ncc(F)cn2)c(=O)c2ccc(Br)cc12 (relative stereo) [Example 51, 2-[6-bromo-4-[trans-2-ethylcyclopropyl]oxy-1-oxophthalazin-2-yl]-N-(5-fluoropyrimidin-2-yl)acetamide]
< 1000 nM	447 nM		COC1(C(F)(F)F)CC(Oc2nn(CC(=O)Nc3ncc(F)cn3)c(=O)c3ccc(Br)cc23)C1 (centres unmarked) [Example 43]
< 1000 nM	408 nM		O=C(Cn1nc(OC2CC2)c2cc(Cl)ccc2c1=O)Nc1ncc(F)cn1 [Example 34, 2-(6-chloro-4-cyclopropyloxy-1-oxophthalazin-2-yl)-N-(5-fluoropyrimidin-2-yl)acetamide]
1000 to 10000 nM	1510 nM		O=C(Cn1nc(OC2CC(F)(F)C2)c2cc(Br)ccc2c1=O)Nc1ncc(F)cn1 [Example 49, 2-[6-bromo-4-(3,3-difluorocyclobutyl)oxy-1-oxophthalazin-2-yl]-N-(5-fluoropyrimidin-2-yl)acetamide]
1000 to 10000 nM	1120 nM		O=C(Cn1nc(OC2CC2)c2cc(C3CCC3)ccc2c1=O)Nc1ncc(F)cn1 [Example 39, 2-(6-cyclobutyl-4-cyclopropyloxy-1-oxophthalazin-2-yl)-N-(5-fluoropyrimidin-2-yl)acetamide]
< 1000 nM		202 nM	C[C@@H]1CC1Oc1nn(CC(=O)Nc2ncc(F)cn2)c(=O)c2ccc(Br)cc12 (single isomer, unassigned) [Example 2, 2-[6-bromo-4-[2-trans-methylcyclopropyl]oxy-1-oxophthalazin-2-yl]-N-(5-fluoropyrimidin-2-yl)acetamide]
< 1000 nM	862 nM		O=C(Cn1nc(OC2CC3CC[C@@H]2C3)c2cc(Br)ccc2c1=O)Nc1ncc(F)cn1 (some centres unmarked) [Example 46, 2-[4-[[(1r,2r,4s)-2-bicyclo[2.2.1]heptanyl]oxy]-6-bromo-1-oxophthalazin-2-y1]-N-(5-fluoropyrimidin-2-yl)acetamide]
< 1000 nM	26 nM		Cc1cnc(NC(=O)Cn2nc(OC3CC4(CC4)C3)c3cc(Br)ccc3c2=O)nc1 [Example 29, 2-(6-bromo-1-oxo-4-spiro[2.3]hexan-5-yloxyphthalazin-2-yl)-N-(5-methylpyrimidin-2-yl)acetamide]
< 1000 nM		70 nM	O=C(Cn1nc(OC2CC2(F)F)c2cc(Br)ccc2c1=O)Nc1ncc(F)cn1 (single isomer, unassigned) [Example 17, 2-[6-bromo-4-[2,2-difluorocyclopropyl]oxy-1-oxophthalazin-2-yl]-N-(5-fluoropyrimidin-2-yl)acetamide]
